In patent US4364958A, “1-Substituted-3-cycloalkyl-sulfonyl-pyrrolidine-2,5-dione derivatives and fungicidal compositions thereof” (Chinoin Gyogyszer es Vegyeszeti Termekek Gyara Rt., priority 1979, dated 1982):
Converted amounts (≈) assume the structure as drawn. Read-outs that look alike come from different tables or passages of the source.

Tests used:
Assay in all cases: minimal inhibitory concentration in Sabouraud medium
Type in all cases: cell-based
[1] = tested on: Sporotrichum schenkii CBS.34035; settings: Sporotrichum
From the text: Sporotrichum schenkii CBS.34035
(§1) As a medium Saboroud medium was employed.

[2] = tested on: Epidermophyton floccosum OKI/IV.; settings: Epidermophyton floccosum
From the text: Epidermophyton floccosum OKI/IV.
as §1

[3] = tested on: Penicillium digitatum CBS.31948; settings: Penicillium digitatum
From the text: Penicillium digitatum CBS.31948
as §1

[4] = tested on: Trichophyton mentagrophytes CBS.50148; settings: Trichophyton mentagrophytes
From the text: Trichophyton mentagrophytes CBS.50148
as §1

[5] = tested on: Candida albicans CBS.562; settings: Candida albicans
From the text: Candida albicans CBS.562 "2"
as §1

[6] = tested on: Trichophyton rubrum CBS.30338; settings: Trichophyton rubrum
From the text: Trichophyton rubrum CBS.30338
as §1

[7] = tested on: Saccharomyces cerevisiae OKI.1282; settings: Saccharomyces cerevisiae
From the text: Saccharomyces cerevisiae OKI.1282
as §1

[8] = tested on: Aspergillus niger CBS.12648; settings: Aspergillus niger
From the text: Aspergillus niger CBS.12648
as §1

[9] = 72 h, read-out: minimal inhibitory concentration
[10] = 144 h, read-out: minimal inhibitory concentration
[11] = 288 h, read-out: minimal inhibitory concentration
[12] = CBS.50148, 72 h, 72 hours, read-out: minimal inhibitory concentration
[13] = CBS.50148, 144 h, 144 hours, read-out: minimal inhibitory concentration
[14] = CBS.50148, 288 h, 288 hours, read-out: minimal inhibitory concentration

Compound | MIC ([1]; CBS.34035, 72 h, 72 hours) [mg/L] | MIC ([1]; CBS.34035, 144 h, 144 hours) [mg/L] | MIC ([1]; CBS.34035, 288 h, 288 hours) [mg/L] | MIC [2, 9] [mg/L] | MIC [2, 10] [mg/L] | MIC [2, 11] [mg/L] | MIC ([3]; CBS.31948, 72 h, 72 hours) [mg/L] | MIC ([3]; CBS.31948, 144 h, 144 hours) [mg/L] | MIC ([3]; CBS.31948, 288 h, 288 hours) [mg/L] | MIC [4, 12] [mg/L] | MIC [4, 13] [mg/L] | MIC [4, 14] [mg/L] | MIC ([5]; CBS.562, 24 h, 24 hours) [mg/L] | MIC ([5]; CBS.562, 48 h, 48 hours) [mg/L] | MIC ([6]; CBS.30338, 72 h, 72 hours) [mg/L] | MIC ([6]; CBS.30338, 144 h, 144 hours) [mg/L] | MIC ([6]; CBS.30338, 288 h, 288 hours) [mg/L] | MIC ([7]; OKI.1282, 24 h, 24 hours) [mg/L] | MIC ([7]; OKI.1282, 48 h, 48 hours) [mg/L] | MIC ([8]; CBS.12648, 72 h, 72 hours) [mg/L] | further results
O=C1CC(S(=O)(=O)C2CCCCC2)C(=O)N1 (stereo not drawn) [3-Cyclohexyl-sulfonyl-pyrrolidine-2,5-dione] | 150 (≈ 611 µM) | 150 (≈ 611 µM) | 150 (≈ 611 µM) | 25 (≈ 102 µM) | 25 (≈ 102 µM) | 25 (≈ 102 µM) | 50 (≈ 204 µM) | 50 (≈ 204 µM) | 50 (≈ 204 µM) | 50 (≈ 204 µM) | 50 (≈ 204 µM) | 75 (≈ 306 µM) |  |  | 50 (≈ 204 µM) | 75 (≈ 306 µM) | 75 (≈ 306 µM) |  |  |  | MIC ([2]; read-out: Minimal inhibitory concentration inhibiting the growth): 25 mg/L (≈ 102 µM); MIC ([4]; CBS.50148, read-out: Minimal inhibitory concentration inhibiting the growth): 50 mg/L (≈ 204 µM)
Cc1ccccc1N1C(=O)CC(S(=O)(=O)C2CCCCC2)C1=O (stereo not drawn) [1-(o-tolyl)-3-cyclohexyl-sulfonyl-pyrrolidine-2,5-dione] | 10 (≈ 29.8 µM) | 25 (≈ 74.5 µM) | 50 (≈ 149 µM) | 5 (≈ 14.9 µM) | 10 (≈ 29.8 µM) | 10 (≈ 29.8 µM) | 10 (≈ 29.8 µM) | 50 (≈ 149 µM) | 50 (≈ 149 µM) | 10 (≈ 29.8 µM) | 25 (≈ 74.5 µM) | 25 (≈ 74.5 µM) | 75 (≈ 224 µM) | 100 (≈ 298 µM) | 10 (≈ 29.8 µM) | 25 (≈ 74.5 µM) | 50 (≈ 149 µM) | 25 (≈ 74.5 µM) | 25 (≈ 74.5 µM) | 100 (≈ 298 µM) | MIC ([8]; CBS.12648, 144 h, 144 hours): 150 mg/L (≈ 447 µM); MIC ([8]; CBS.12648, 288 h, 288 hours): 150 mg/L (≈ 447 µM)

Now from value to molecule, other results behind:

MIC ([1]; CBS.34035, 72 h, 72 hours) [mg/L] | MIC ([1]; CBS.34035, 144 h, 144 hours) [mg/L] | MIC ([1]; CBS.34035, 288 h, 288 hours) [mg/L] | MIC [2, 9] [mg/L] | MIC [2, 10] [mg/L] | MIC [2, 11] [mg/L] | MIC ([3]; CBS.31948, 72 h, 72 hours) [mg/L] | MIC ([3]; CBS.31948, 144 h, 144 hours) [mg/L] | MIC ([3]; CBS.31948, 288 h, 288 hours) [mg/L] | MIC [4, 12] [mg/L] | MIC [4, 13] [mg/L] | MIC [4, 14] [mg/L] | MIC ([5]; CBS.562, 24 h, 24 hours) [mg/L] | MIC ([5]; CBS.562, 48 h, 48 hours) [mg/L] | MIC ([6]; CBS.30338, 72 h, 72 hours) [mg/L] | MIC ([6]; CBS.30338, 144 h, 144 hours) [mg/L] | MIC ([6]; CBS.30338, 288 h, 288 hours) [mg/L] | MIC ([7]; OKI.1282, 24 h, 24 hours) [mg/L] | MIC ([7]; OKI.1282, 48 h, 48 hours) [mg/L] | MIC ([8]; CBS.12648, 72 h, 72 hours) [mg/L] | Compound | further results
25 (≈ 68.2 µM) | 25 (≈ 68.2 µM) | 25 (≈ 68.2 µM) | 100 (≈ 273 µM) | 150 (≈ 409 µM) | 150 (≈ 409 µM) | 100 (≈ 273 µM) | 150 (≈ 409 µM) | 150 (≈ 409 µM) | 75 (≈ 205 µM) | 100 (≈ 273 µM) | 100 (≈ 273 µM) | 75 (≈ 205 µM) | 150 (≈ 409 µM) | 75 (≈ 205 µM) | 75 (≈ 205 µM) | 150 (≈ 409 µM) | 25 (≈ 68.2 µM) | 50 (≈ 136 µM) | 75 (≈ 205 µM) | O=C1CC(S(=O)(=O)C2CCCCC2)C(=O)N1c1ccc([N+](=O)[O-])cc1 (stereo not drawn) [1-(p-nitrophenyl)-3-cyclohexylsulfonyl-pyrrolidine-2,5-dione] | MIC ([8]; CBS.12648, 144 h, 144 hours): 150 mg/L (≈ 409 µM); MIC ([8]; CBS.12648, 288 h, 288 hours): 150 mg/L (≈ 409 µM)
5 (≈ 13.8 µM) | 25 (≈ 68.8 µM) | 25 (≈ 68.8 µM) | 25 (≈ 68.8 µM) | 50 (≈ 138 µM) | 75 (≈ 206 µM) | 75 (≈ 206 µM) | 100 (≈ 275 µM) | 150 (≈ 413 µM) | 10 (≈ 27.5 µM) | 25 (≈ 68.8 µM) | 25 (≈ 68.8 µM) | 50 (≈ 138 µM) | 75 (≈ 206 µM) | 10 (≈ 27.5 µM) | 25 (≈ 68.8 µM) | 50 (≈ 138 µM) | 25 (≈ 68.8 µM) | 50 (≈ 138 µM) | 75 (≈ 206 µM) | CC(=O)c1ccc(N2C(=O)CC(S(=O)(=O)C3CCCCC3)C2=O)cc1 (stereo not drawn) [1-(4-acetylphenyl)-3-cyclohexyl-sulfonyl-pyrrolidine-2,5-dione] | MIC ([8]; CBS.12648, 144 h, 144 hours): 150 mg/L (≈ 413 µM); MIC ([8]; CBS.12648, 288 h, 288 hours): 150 mg/L (≈ 413 µM)
10 (≈ 28.1 µM) | 25 (≈ 70.3 µM) | 25 (≈ 70.3 µM) | 2.5 (≈ 7.03 µM) | 5 (≈ 14.1 µM) | 10 (≈ 28.1 µM) | 10 (≈ 28.1 µM) | 50 (≈ 141 µM) | 50 (≈ 141 µM) | 2.5 (≈ 7.03 µM) | 2.5 (≈ 7.03 µM) | 2.5 (≈ 7.03 µM) | 25 (≈ 70.3 µM) | 75 (≈ 211 µM) | 2.5 (≈ 7.03 µM) | 2.5 (≈ 7.03 µM) | 2.5 (≈ 7.03 µM) | 10 (≈ 28.1 µM) | 25 (≈ 70.3 µM) | 50 (≈ 141 µM) | O=C1CC(S(=O)(=O)C2CCCCC2)C(=O)N1c1cccc(Cl)c1 (stereo not drawn) [1-(m-chlorphenyl)-3-cyclohexylsulfonyl-pyrrolidine-2,5-dione] | MIC ([8]; CBS.12648, 144 h, 144 hours): 100 mg/L (≈ 281 µM); MIC ([8]; CBS.12648, 288 h, 288 hours): 100 mg/L (≈ 281 µM)
